From ChEMBL document CHEMBL1153613, “Synthesis and reactivity of novel gamma-phosphate modified ATP analogues” (Bioorg Med Chem Lett, 2009)
Active and inactive are the calls of the source. The calls are words filed in the database; no cut-off is given here.

Target: Cyclin-dependent kinase 2 (Homo sapiens) (UniProt P24941)
Test: Effect on wild type recombinant CDK2/cyclin E1 assessed as p27kip1 phosphorylation after 1 hr by immunoblot analysis

Row | Structure (SMILES) | Activity
1 | [N-]=[N+]=NCCOP(=O)(O)OP(=O)(O)OP(=O)(O)OC[C@H]1O[C@@H](n2cnc3c(N)ncnc32)[C@H](O)[C@@H]1O | Active
2 | [N-]=[N+]=Nc1ccc(NP(=O)(O)OP(=O)(O)OP(=O)(O)OC[C@H]2O[C@@H](n3cnc4c(N)ncnc43)[C@H](O)[C@@H]2O)cc1 | Active
3 | C#CCNP(=O)(O)OP(=O)(O)OP(=O)(O)OC[C@H]1O[C@@H](n2cnc3c(N)ncnc32)[C@H](O)[C@@H]1O | Active
4 | C#CCCCOP(=O)(O)OP(=O)(O)OP(=O)(O)OC[C@H]1O[C@@H](n2cnc3c(N)ncnc32)[C@H](O)[C@@H]1O | Active
5 | [N-]=[N+]=NCCCCCCNP(=O)(O)OP(=O)(O)OP(=O)(O)OC[C@H]1O[C@@H](n2cnc3c(N)ncnc32)[C@H](O)[C@@H]1O | Active
6 | C#CCCCNP(=O)(O)OP(=O)(O)OP(=O)(O)OC[C@H]1O[C@@H](n2cnc3c(N)ncnc32)[C@H](O)[C@@H]1O | Active
7 | [N-]=[N+]=NCCOCCOCCOCCNP(=O)(O)OP(=O)(O)OP(=O)(O)OC[C@H]1O[C@@H](n2cnc3c(N)ncnc32)[C@H](O)[C@@H]1O | Active
8 | C#CCCNP(=O)(O)OP(=O)(O)OP(=O)(O)OC[C@H]1O[C@@H](n2cnc3c(N)ncnc32)[C@H](O)[C@@H]1O | Active
9 | C=CCNP(=O)(O)OP(=O)(O)OP(=O)(O)OC[C@H]1O[C@@H](n2cnc3c(N)ncnc32)[C@H](O)[C@@H]1O | Active
